Measurements from US20240316051A1, “A PHARMACEUTICAL COMBINATION AND USE THEREOF” (Ascentage Pharma (Suzhou) Co., Ltd., priority 2021, published 2024).

target: T1, EED (1-441)-His protein (Homo sapiens, UniProt O75530); experiment: EED-H3K27Me3 peptide competition binding assay by AlphaScreen; conditions: IC50 class, Table 4B, read-out: Alpha screen
T1 construct: 20 nM EED (1-441)-His protein
Procedure: EED-H3K27Me3 Peptide Competition Binding Assay by AlphaScreen (α-Screen):
The compounds at each concentration (2.5 μl of each) were transferred into a 384-well Perkin Elmer OptiPlate-384 white plates. 5 μl of solutions containing 20 nM EED (1-441)-His protein in the buffer (25 mM HEPES, pH 8, 0.02% Tween-20, 0.5% BSA) were added to the wells and then incubated with compound for 15 min. 2.5 μl of solutions containing 20 nM biotin-H3K27Me3 (19-33) peptide in the buffer (25 mM HEPES, pH 8, 0.02% Tween-20, 0.5% BSA) were added to the wells and then incubated with compound for 30 min. AlphaScreen detection beads mix was prepared immediately before use by mixing nickel chelate acceptor beads and streptavidin donor beads in a 1:1 ratio (Perkin Elmer, Product No. 6760619C/M/R) into the buffer described above. Then 10 μl of the detection beads mix was added to the plate and incubated in the dark at RT for 1 h. The final concentration of donor and acceptor beads was 10 μg/ml for each. Plates were read on CLARIOStar plate reader (BMG Labtech) using the AlphaScreen setting adapted for optimal signal detection with a 615 nm filter, after sample excitation at 680 nm. The emission signal at 615 nm was used to quantify compound inhibition. AlphaScreen signals were normalized based on the reading coming from the positive (maximum signal control) and negative controls (minimum signal control) to give percentage of activities left. The data were then fit to a dose response equation to get the IC50 values.

T1 sequence (O75530 whole entry): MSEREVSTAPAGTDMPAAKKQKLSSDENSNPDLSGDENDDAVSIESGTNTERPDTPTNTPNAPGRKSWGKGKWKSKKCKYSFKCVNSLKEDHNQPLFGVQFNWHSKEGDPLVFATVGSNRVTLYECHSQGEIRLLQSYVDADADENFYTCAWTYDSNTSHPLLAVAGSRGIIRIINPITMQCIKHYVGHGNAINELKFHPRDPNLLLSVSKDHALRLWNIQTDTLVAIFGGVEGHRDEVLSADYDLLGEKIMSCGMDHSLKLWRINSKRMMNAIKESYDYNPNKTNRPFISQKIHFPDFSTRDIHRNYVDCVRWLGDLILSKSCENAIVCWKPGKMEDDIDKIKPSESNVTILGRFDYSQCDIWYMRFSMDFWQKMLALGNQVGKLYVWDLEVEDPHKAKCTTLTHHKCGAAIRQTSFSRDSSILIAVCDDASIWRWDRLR

SMILES	IC50
CC(C)(C)c1cc2c(cn1)-c1cnc(NCc3c(F)ccc4c3CCO4)n3cnc(c13)C(=O)N(CC(F)(F)F)C2 [E 46, 7-(tert-butyl)-12-(((5-fluoro-2,3-dihydrobenzofuran-4-yl)methyl)amino)-4-(2,2,2-trifluoroethyl)-4,5-dihydro-3H-2,4,8,11,12a-pentaazabenzo[4,5]cyclo octa[1,2,3-cd]inden-3-one]	< 10 nM
Cc1cnc2n1Cc1ncccc1-c1cnc(NCc3c(F)ccc4c3CCO4)n3cnc-2c13 [E 17, N-((5-fluoro-2,3-dihydrobenzofuran-4-yl)methyl)-5-methyl-6H-2,3,5a,7,12,13a-hexaazabenzo[4,5] cyclopenta[7,8]cycloocta[1,2,3-cd]inden-13-amine]	< 10 nM
Cc1cc2c(cn1)-c1cnc(NCc3c(F)ccc4c3CCO4)n3cnc(c13)C(=O)N(CC(F)F)C2 [E 9, 4-(2,2-difluoroethyl)-12-(((5-fluoro-2,3-dihydro-benzofuran-4-yl)methyl)amino)-7-methyl-4,5-dihydro-3H-2,4,8,11,12a-pentaazabenzo[4,5] cycloocta[1,2,3-cd]inden-3-one]	< 10 nM
O=C1NCCc2ccccc2-c2cnc(NCc3c(F)ccc4c3CCO4)n3cnc1c23 [E 28, 13-(((5-fluoro-2,3-dihydrobenzofuran-4-yl)methyl)amino)-5,6-dihydro-2,4, 12, 13a-tetraazabenzo[4,5] cyclonona[1,2,3-cd]inden-3(4H)-one]	10 to 100 nM
Fc1ccc2c(c1CNc1ncc3c4c(ncn14)-c1nccn1Cc1cc(C(F)(F)F)ncc1-3)CCO2 [E 33, N-((5-fluoro-2,3-dihydrobenzofuran-4-yl)methyl)-8-(trifluoromethyl)-6H-2,3,5a,9,12,13a-hexaaza-benzo[4,5]cyclopenta[7,8]cycloocta[1,2,3-cd]inden-13-amine]	10 to 100 nM
CC(C)N1Cc2cc(C#N)ccc2-c2cnc(NCc3c(F)ccc4c3CCO4)n3cnc(c23)C1=O [E 4, 12-(((5-fluoro-2,3-dihydrobenzofuran-4-yl)methyl)amino)-4-isopropyl-3-oxo-4,5-dihydro-3H-2,4,11, 12a-tetraazabenzo[4,5]cycloocta[1,2,3-cd]indene-7-carbonitrile]	< 10 nM

The next lines start with the values.

IC50	SMILES
< 10 nM	CCc1ccc2c(n1)CN(CC(C)(F)F)C(=O)c1ncn3c(NCc4c(F)ccc5c4CCO5)ncc-2c13 [E 16, 4-(2,2-difluoropropyl)-7-ethyl-12-(((5-fluoro-2,3-dihydrobenzofuran-4-yl)methyl)amino)-4,5-dihydro-3H-2,4,6,11,12a-pentaazabenzo[4,5]cycloocta [1,2,3-cd]inden-3-one]
10 to 100 nM	Cc1ccc2c(n1)CCN(CC(F)(F)F)C(=O)c1ncn3c(NCc4c(F)ccc5c4CCO5)ncc-2c13 [E 30, 13-(((5-fluoro-2,3-dihydrobenzofuran-4-yl)methyl)amino)-8-methyl-4-(2,2,2-trifluoroethyl)-5,6-dihydro-2,4,7,12,13a-pentaazabenzo[4,5] cyclonona[1,2,3-cd]inden-3(4H)-one]

same assay, conditions: Table 4A, read-out: Alpha screen

SMILES	IC50
O=C1OCc2ncccc2-c2cnc(NCc3c(F)ccc4c3CCO4)n3cnc1c23 [Compound 12, 12-(((5-fluoro-2,3-dihydrobenzofuran-4-yl)methyl)amino)-3H,5H-4-oxa-2,6,11,12a-tetraazabenzo[4,5]cycloocta[1,2,3-cd]inden-3-one]	0.34 nM
Cc1nc2c(s1)-c1cnc(NCc3c(F)ccc4c3CCO4)n3cnc(c13)C(=O)N(C1CC1)C2 [Compound 86, 4-cyclopropyl-11-(((5-fluoro-2,3-dihydrobenzofuran-4-yl)methyl)amino)-7-methyl-4,5-dihydro-3H-8-thia-2,4,6,10,11a-pentaazacyclopenta[4,5] cycloocta[1,2,3-cd]inden-3-one]	2.56 nM
Cn1ncc2c1CNC(=O)c1ncn3c(NCc4c(F)ccc5c4CCO5)ncc-2c13 [Compound 53, 11-(((5-fluoro-2,3-dihydrobenzofuran-4-yl)methyl)amino)-6-methyl-5,6-dihydro-2,4,6,7,10,11a-hexaazacyclopenta[4,5]cycloocta[1,2,3-cd]inden-3(4H)-one]	3.96 nM
COc1cccc(F)c1CNc1ncc2c3c(ncn13)C(=O)N(C1CC1)Cc1cc(C(F)(F)F)ncc1-2 [Compound 70, 4-cyclopropyl-12-((2-fluoro-6-methoxybenzyl)amino)-7-(trifluoromethyl)-4,5-dihydro-3H-2,4,8, 11,12a-pentaazabenzo[4,5]cycloocta[1,2,3-cd] inden-3-one]	> 100 nM
Cc1nn(C)c2c1-c1cnc(NCc3c(F)ccc4c3CCO4)n3cnc(c13)C(=O)N(C1CC1)C2 [Compound 56, 4-cyclopropyl-11-(((5-fluoro-2,3-dihydrobenzo-furan-4-yl)methyl)amino)-6,8-dimethyl-5,6-dihydro-2,4,6,7,10,11a-hexaazacyclopenta[4,5]cycloocta [1,2,3-cd]inden-3(4H)-one]	4.49 nM
COc1cccc(F)c1CNc1ncc2c3c(ncn13)C(=O)N(C1CC1)Cc1nc(C(F)(F)F)ccc1-2 [Compound 69, 4-cyclopropyl-12-((2-fluoro-6-methoxybenzyl)amino)-7-(trifluoromethyl)-4,5-dihydro-3H-2,4,6, 11,12a-pentaazabenzo[4,5]cycloocta[1,2,3-cd] inden-3-one]	19.8 nM
O=C1NCc2cc(F)ccc2-c2cnc(NCc3c(F)ccc4c3CCO4)n3cnc1c23 [Compound 17, 7-fluoro-12-(((5-fluoro-2,3-dihydrobenzofuran-4-yl)methyl)amino)-4,5-dihydro-3H-2,4,11,12a-tetra azabenzo[4,5]cycloocta[1,2,3-cd]inden-3-one]	0.66 nM
CC1(O)CC(CN2Cc3cc(C(F)(F)F)ncc3-c3cnc(NCc4c(F)ccc5c4CCO5)n4cnc(c34)C2=O)C1 (stereo not drawn) [Compound 49, 12-(((5-fluoro-2,3-dihydrobenzofuran-4-yl)methyl)amino)-4-((3-hydroxy-3-methylcyclobutyl)methyl)-7-(trifluoromethyl)-4,5-dihydro-3H-2,4,8,11,12a-pentaazabenzo[4,5]cycloocta[1,2,3-cd]inden-3-one]	1.81 nM
CN1CCC(CN2Cc3cc(C(F)(F)F)ncc3-c3cnc(NCc4c(F)ccc5c4CCO5)n4cnc(c34)C2=O)CC1 [Compound 38, 12-(((5-fluoro-2,3-dihydrobenzofuran-4-yl)methyl)amino)-4-((1-methylpiperidin-4-yl)methyl)-7-(trifluoromethyl)-4,5-dihydro-3H-2,4,8,11,12a-pentaazabenzo[4,5]cycloocta[1,2,3-cd]inden-3-one]	1.25 nM

Continued, values first:

IC50	SMILES
3.07 nM	O=C1c2ncn3c(NCc4c(F)ccc5c4CCO5)ncc(c23)-c2cnc(C(F)(F)F)cc2CN1CC(F)(F)F [Compound 84, 12-(((5-fluoro-2,3-dihydrobenzofuran-4-yl)methyl)amino)-4-(2,2,2-trifluoroethyl)-7-(trifluoromethyl)-4,5-dihydro-3H-2,4,8,11,12a-pentaazabenzo[4,5] cycloocta[1,2,3-cd]inden-3-one]
1.34 nM	O=C1c2ncn3c(NCc4c(F)ccc5c4CCO5)ncc(c23)-c2ccc(C(F)(F)F)nc2CN1CC1(O)CC1 [Compound 44, 12-(((5-fluoro-2,3-dihydrobenzofuran-4-yl)methyl)amino)-4-((1-hydroxycyclopropyl)methyl)-7-(trifluoromethyl)-4,5-dihydro-3H-2,4,6,11,12a-pentaazabenzo[4,5]cycloocta[1,2,3-cd]inden-3-one]
3.35 nM	O=C1OCc2nc(C(F)(F)F)ccc2-c2cnc(NCc3c(F)ccc4c3CCO4)n3cnc1c23 [Compound 14, 12-(((5-fluoro-2,3-dihydrobenzofuran-4-yl)methyl)amino)-7-(trifluoromethyl)-3H,5H-4-oxa-2,6,11, 12a-tetraazabenzo[4,5]cycloocta[1,2,3-cd]inden-3-one]
26.1 nM	CN1Cc2ccc(C(F)(F)F)nc2-c2cnc(NCc3c(F)ccc4c3CCO4)n3cnc(c23)C1=O [Compound 39, 12-(((5-fluoro-2,3-dihydrobenzofuran-4-yl)methyl)amino)-4-methyl-8-(trifluoromethyl)-4,5-dihydro-3H-2,4,9,11,12a-pentaazabenzo[4,5]cycloocta [1,2,3-cd]inden-3-one]
0.6 nM	O=C1c2ncn3c(NCc4c(F)ccc5c4CCO5)ncc(c23)-c2ccc(C(F)(F)F)nc2CN1C1CC1 [Compound 41, 4-cyclopropyl-12-(((5-fluoro-2,3-dihydrobenzofuran-4-yl)methyl)amino)-7-(trifluoromethyl)-4,5-dihydro-3H-2,4,6,11,12a-pentaazabenzo[4,5] cycloocta[1,2,3-cd]inden-3-one]
2.69 nM	O=C1c2ncn3c(NCc4c(F)ccc5c4CCO5)ncc(c23)-c2cnc(C(F)(F)F)cc2CN1CCF [Compound 72, 12-(((5-fluoro-2,3-dihydrobenzofuran-4-yl)methyl)amino)-4-(2-fluoroethyl)-7-(trifluoromethyl)-4,5-dihydro-3H-2,4,8,11,12a-pentaazabenzo[4,5] cycloocta[1,2,3-cd]inden-3-one]
1.16 nM	O=C1c2ncn3c(NCc4c(F)ccc5c4CCO5)ncc(c23)-c2ccc(C(F)(F)F)nc2CN1CC1COCCO1 (stereo not drawn) [Compound 35, 4-((1,4-dioxan-2-yl)methyl)-12-(((5-fluoro-2,3-dihydrobenzofuran-4-yl)methyl)amino)-7-(trifluoro-methyl)-4,5-dihydro-3H-2,4,6,11,12a-pentaazabenzo [4,5]cycloocta[1,2,3-cd]inden-3-one]
